Assay results: patent publication US11000511B2, “Chemical compounds as antibiotics” (priority 2017, dated 2021)

Legend:
[1] = biological target: T1, LasB elastase activity in dialysed supernatant from P. aeruginosa strain PA01 (Pseudomonas aeruginosa, UniProt P14756); assay: Elastin Congo Red assay to determine % inhibition (Assay 1); format: biochemical; conditions: read-out: Elastin hydrolysis % inhibition @ 50/25 μM inhibitor concentration Assay 1
T1 construct: uses as source of enzyme dialysed supernatant from P. aeruginosa; endogenous in cells; host or cells: P. aeruginosa strain PA01 culture supernatant, filtered and dialysed
Summary of the method: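 Enzyme source: PA01 culture supernatant (19 h growth), filtered and dialysed into 50 mM Tris pH 7.4, 2.5 mM CaCl2. Mixed 1:1 with Elastin Congo Red (20 mg/mL) plus 0.01% Triton X-100 and compound (routinely 50 and 25 μM), 24 h at 37 °C shaking. Dye release at OD520 gives % inhibition versus DMSO.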

[2] = biological target: T2, purified LasB protein from P. aeruginosa (Pseudomonas aeruginosa, UniProt P14756); assay: Fluorometric assay to determine Ki (Assay 1); format: biochemical; conditions: Ki (μM) Assay 1, purified LasB, substrate Abz-Ala-Gly-Leu-Ala-p-Nitro-Benzyl-Amide 250 μM, Ki calculated from IC50; inhibitor 0.006 to 200 μM
T2 construct: purchased Merck or Charles River Laboratories
Summary of the method: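 Purified LasB (10 to 140 ng/ml) with 250 μM Abz-Ala-Gly-Leu-Ala-p-nitrobenzylamide in 50 mM Tris-HCl pH 7.4, 2.5 mM CaCl2, 0.01% Triton X100; hydrolysis read by fluorescence (Ex 340/Em 415 nm) over 30 min at 37° C. Inhibitor 2-fold series, 0.006–200 μM (Assay 1) or 0.0016–200 μM (Assay 2); IC50 converted to Ki via Ki=IC50/(1+[S]/Km), Km=214 μM.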

T2 sequence (P14756 198-498): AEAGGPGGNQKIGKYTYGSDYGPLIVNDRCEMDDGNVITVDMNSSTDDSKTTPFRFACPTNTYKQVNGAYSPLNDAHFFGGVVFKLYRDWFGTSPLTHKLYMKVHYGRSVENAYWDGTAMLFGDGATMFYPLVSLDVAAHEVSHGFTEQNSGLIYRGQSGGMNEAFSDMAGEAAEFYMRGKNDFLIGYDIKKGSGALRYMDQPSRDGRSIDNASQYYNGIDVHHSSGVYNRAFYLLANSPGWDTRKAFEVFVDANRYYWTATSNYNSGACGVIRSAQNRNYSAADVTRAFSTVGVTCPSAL
T1 sequence (P14756 198-498): as above

Compound	inhibition at 50 µM [1]	Ki [2]
NCCC1CN(c2ccc3nc(CNC(=O)C4(CC(=O)O)Cc5ccccc5C4)sc3c2)C1 [Example 70, 2-[2-[[6-[3-(2-aminoethyl)azetidin-1-yl]-1,3-benzothiazol-2-yl]methylcarbamoyl]indan-2-yl]acetic acid]	> 60%	< 0.3 µM
CN1CC2(C1)CN(c1ccc3nc(CNC(=O)C4(CC(=O)O)Cc5ccccc5C4)sc3c1)C2 [Example 71, 2-[2-[[6-(6-methyl-2,6-diazaspiro[3.3]heptan-2-yl)-1,3-benzothiazol-2-yl]methylcarbamoyl]indan-2-yl]acetic acid]	> 60%	< 0.3 µM
NCCNc1ccc2sc(CNC(=O)C3(CC(=O)O)Cc4ccccc4C3)nc2c1 [Example 72, 2-[2-[[5-(2-aminoethylamino)-1,3-benzothiazol-2-yl]methylcarbamoyl]indan-2-yl]acetic acid]	> 60%	0.3 to 2 µM
NC1CN(c2ccc3sc(CNC(=O)C4(CC(=O)O)Cc5ccccc5C4)nc3c2)C1 [Example 73, 2-[2-[[5-(3-aminoazetidin-1-yl)-1,3-benzothiazol-2-yl]methylcarbamoyl]indan-2-yl]acetic acid]	> 60%	< 0.3 µM
CN(C)C1CN(c2ccc3sc(CNC(=O)C4(CC(=O)O)Cc5ccccc5C4)nc3c2)C1 [Example 74, 2-[2-[[5-[3-(dimethylamino)azetidin-1-yl]-1,3-benzothiazol-2-yl]methylcarbamoyl]indan-2-yl]acetic acid]	> 60%	< 0.3 µM
C[N+](C)(C)C1CN(c2ccc3sc(CNC(=O)C4(CC(=O)[O-])Cc5ccccc5C4)nc3c2)C1 [Example 75, 2-[2-[[5-[3-(trimethylammonio)azetidin-1-yl]-1,3-benzothiazol-2-yl]methylcarbamoyl]indan-2-yl]acetate]	> 60%	0.3 to 2 µM
CN(C)CCNc1ccc2sc(CNC(=O)C3(CC(=O)O)Cc4ccccc4C3)nc2c1 [Example 76, 2-[2-[[5-[2-(dimethylamino)ethylamino]-1,3-benzothiazol-2-yl]methylcarbamoyl]indan-2-yl]acetic acid]	> 60%	0.3 to 2 µM
NCCc1ccc2nc(CNC(=O)C3(CC(=O)O)Cc4ccccc4C3)sc2c1 [Example 80, 2-[2-[[6-(2-aminoethyl)-1,3-benzothiazol-2-yl]methylcarbamoyl]indan-2-yl]acetic acid]	> 60%	0.3 to 2 µM
C[N+](C)(C)CC#Cc1ccc2nc(CNC(=O)C3(CC(=O)[O-])Cc4ccccc4C3)sc2c1 [Example 86, 2-[2-[[6-[3-(trimethylammonio)prop-1-ynyl]-1,3-benzothiazol-2-yl]methylcarbamoyl]indan-2-yl]acetate]	> 60%	< 0.3 µM
NC/C=C/c1ccc2sc(CNC(=O)C3(CC(=O)O)Cc4ccccc4C3)nc2c1 [Example 87, 2-[2-[[5-[(E)-3-aminoprop-1-enyl]-1,3-benzothiazol-2-yl]methylcarbamoyl]indan-2-yl]acetic acid]	> 60%	0.3 to 2 µM
CN(C)CC#Cc1ccc2sc(CNC(=O)C3(CC(=O)O)Cc4ccccc4C3)nc2c1 [Example 88, 2-[2-[[5-[3-(dimethylamino)prop-1-ynyl]-1,3-benzothiazol-2-yl]methylcarbamoyl]indan-2-yl]acetic acid]	> 60%	< 0.3 µM
CN(C)CCCc1ccc2sc(CNC(=O)C3(CC(=O)O)Cc4ccccc4C3)nc2c1 [Example 89, 2-[2-[[5-[3-(dimethylamino)propyl]-1,3-benzothiazol-2-yl]methylcarbamoyl]indan-2-yl]acetic acid]	> 60%	0.3 to 2 µM
C[N+](C)(C)CCCc1ccc2sc(CNC(=O)C3(CC(=O)[O-])Cc4ccccc4C3)nc2c1 [Example 90, 2-[2-[[5-[3-(trimethylammonio)propyl]-1,3-benzothiazol-2-yl]methylcarbamoyl]indan-2-yl]acetate]	> 60%	0.3 to 2 µM
CN(C)C[C@H]1C[C@H](c2ccc3nc(CNC(=O)C4(CC(=O)O)Cc5ccccc5C4)sc3c2)C1 [Example 91, 2-(2-(((6-((1 r,3r)-3-((dimethylamino)methyl)cyclobutyl)benzo[d]thiazol-2-yl)methyl)carbamoyl)-2,3-dihydro-1H-inden-2-yl)acetic acid]	> 60%	< 0.3 µM
C[N+](C)(C)C[C@H]1C[C@H](c2ccc3nc(CNC(=O)C4(CC(=O)[O-])Cc5ccccc5C4)sc3c2)C1 [Example 92, 2-[2-[[6-[(1r,3r)-3-[(trimethylammonio)methyl]cyclobutyl]-1,3-benzothiazol-2-yl]methylcarbamoyl]indan-2-yl]acetate]	> 60%	0.3 to 2 µM
CN(C)C[C@H]1C[C@@H](c2ccc3nc(CNC(=O)C4(CC(=O)O)Cc5ccccc5C4)sc3c2)C1 [Example 93, 2-(2-(((6-((1s,3s)-3-((dimethylamino)methyl)cyclobutyl)benzo[d]thiazol-2-yl)methyl)carbamoyl)-2,3-dihydro-1H-inden-2-yl)acetic acid]	> 60%	< 0.3 µM
C[N+](C)(C)C[C@H]1C[C@@H](c2ccc3nc(CNC(=O)C4(CC(=O)[O-])Cc5ccccc5C4)sc3c2)C1 [Example 94, 2-[2-[[6-[(1s,3s)-3-[(trimethylammonio)methyl]cyclobutyl]-1,3-benzothiazol-2-yl]methylcarbamoyl]indan-2-yl]acetate]	> 60%	< 0.3 µM
CN(C)CCc1ccc2nc(CNC(=O)C3(CC(=O)O)Cc4ccccc4C3)sc2c1 [Example 95, 2-[2-[[6-[2-(dimethylamino)ethyl]-1,3-benzothiazol-2-yl]methylcarbamoyl]indan-2-yl]acetic acid]	30 to 60%	0.3 to 2 µM
C[N+](C)(C)CCc1ccc2nc(CNC(=O)C3(CC(=O)[O-])Cc4ccccc4C3)sc2c1 [Example 96, 2-[2-[[6-[2-(trimethylammonio)ethyl]-1,3-benzothiazol-2-yl]methylcarbamoyl]indan-2-yl]acetate]	30 to 60%	0.3 to 2 µM
NCC1CN(c2ccc3nc(CNC(=O)C4(CC(=O)O)Cc5ccccc5C4)sc3c2)C1 [Example 99, 2-[2-[[6-[3-(aminomethyl)azetidin-1-yl]-1,3-benzothiazol-2-yl]methylcarbamoyl]indan-2-yl]acetic acid]	> 60%	< 0.3 µM
NC1CN(c2ccc3nc(CNC(=O)C4(CC(=O)O)Cc5ccccc5C4)sc3c2)C1 [Example 100, 2-[2-[[6-(3-aminoazetidin-1-yl)-1,3-benzothiazol-2-yl]methylcarbamoyl]indan-2-yl]acetic acid]	> 60%	< 0.3 µM
N[C@H]1CCN(c2ccc3nc(CNC(=O)C4(CC(=O)O)Cc5ccccc5C4)sc3c2)C1 [Example 101, 2-[2-[[6-[(3 S)-3-aminopyrrolidin-1-yl]-1,3-benzothiazol-2-yl]methylcarbamoyl]indan-2-yl]acetic acid]	> 60%	0.3 to 2 µM
N[C@@H]1CCN(c2ccc3nc(CNC(=O)C4(CC(=O)O)Cc5ccccc5C4)sc3c2)C1 [Example 102, 2-[2-[[6-[(3R)-3-aminopyrrolidin-1-yl]-1,3-benzothiazol-2-yl]methylcarbamoyl]indan-2-yl]acetic acid]	> 60%	< 0.3 µM
